Here are results for twelve compounds from patent US6814960B1, “Hydroxystilbene compounds used as microbicidal active substances” (Ciba Specialty Chemicals Corporation, priority 1998, dated 2004).

Assay in all cases: MIC value in microtitre plates (optical density)
Common to all, as to format: cell-based

In assay [1] the test system is Aspergillus niger ATCC 6275. The conditions noted are these: microtitre plate, Sabouraud 2% glucose bouillon, 5 days at 28° C., optical density 620 nm, ≦20% growth; some data indicative values. The procedure:
(§1) Determination of the Minimum Inhibiting Concentration (MIC Value) in Microtitre Plates
(§2) Casein/soybean flour peptone bouillon for the preparation of the precultures of the test bacteria and yeast.
(§3) Mycological slant agar for the preculture of moulds.
(§4) Examples of Test Organisms
(§5) The test substances are predissolved in dimethyl sulfoxide (DMSO) and tested in a serial dilution of 1:2.
(§6) Bacteria and yeast are cultured overnight in CASO bouillon, the mould on mycological slant agar and rinsed off with 10 ml of 0.85% sodium chloride solution (+0.1% TritonX-100).
(§7) All test organisms are adjusted to an organism count of 1.5×10^6 CFU/ml with 0.85% sodium chloride solution.
(§8) The test substances are prepipetted into microtitre plates in an amount of 8 μl per well.
(§9) Previously diluted organism substances are diluted 1:100 in CASO bouillon (bacteria and yeast) and Sabouraud 2% glucose bouillon (mould) and added to the test substances in an amount of 192 μl per well.
(§10) The test batches are incubated for 48 hours at 37° C. (bacteria and yeast) or for 5 days at 28° C. (mould).
(§11) After incubation, the growth is determined by reference to the turbidity of the test batches (optical density) at 620 nm in a microplate reader.
(§12) The minimum inhibiting concentration (MIC value) is the concentration of substance at which (compared with the growth control) an appreciable inhibition of the growth (≦20% growth) of the test organisms is ascertained.
(§13) One microtiter plate is used for each test organism and substance concentration. All substances tested in duplicate.

The subject of assay [2] is Candida albicans ATCC 10231. The conditions noted are these: microtitre plate, CASO bouillon, 48 hours at 37° C., optical density 620 nm, ≦20% growth; some data indicative values. The procedure: as §1, §2, §3, §4, §5, §6, §7, §8, §9, §10, §11, §12, §13
For assay [3], the system named is Escherichia coli NCTC 8196. The conditions noted are these: microtitre plate, CASO bouillon, 48 hours at 37° C., optical density 620 nm, ≦20% growth; some data indicative values. The protocol:
as §1, §2, §3, §4, §5, §6, §7, §8, §9, §10, §11, §12, §13

For assay [4], the system named is Pseudomonas aeruginosa CIP A-22. The conditions noted are these: microtitre plate, CASO bouillon, 48 hours at 37° C., optical density 620 nm, ≦20% growth; some data indicative values. The procedure:
as §1, §2, §3, §4, §5, §6, §7, §8, §9, §10, §11, §12, §13

The subject of assay [5] is Staphylococcus hominis DSM 20328. The conditions noted are these: microtitre plate, CASO bouillon, 48 hours at 37° C., optical density 620 nm, ≦20% growth; some data indicative values. The procedure:
as §1, §2, §3, §4, §5, §6, §7, §8, §9, §10, §11, §12, §13

Each structure is given as a SMILES string.

As for `Cc1ccccc1/C=C/c1ccccc1O` [Comp. of formula 174], the “MIC values A. niger” value in assay [1] came out at 60 ppm. Also, the “MIC values C. albicans” value in assay [2] was 60 ppm. For the same compound, the “MIC values E. coli” value in assay [3] is given as 100 ppm. Also, in assay [4], the “MIC values P. aeruginosa” value is greater than 100 ppm. Moreover, in assay [5], the “MIC values S. heminis” value is on record as 60 ppm.
With `Cc1ccc(/C=C/c2cccc(C)c2O)cc1` [Comp. of formula 189], in assay [1], the “MIC values A. niger” value is recorded as greater than 100 ppm. In addition, in assay [2], the “MIC values C. albicans” value is greater than 100 ppm. The “MIC values E. coli” value in assay [3] is listed as 100 ppm. The “MIC values P. aeruginosa” value in assay [4] is greater than 100 ppm. Moreover, in assay [5], the “MIC values S. heminis” value was greater than 100 ppm.
As to `COc1cc(/C=C/c2cccc3ccccc23)cc(O)c1OC` [Comp. of formula 163], the “MIC values A. niger” value in assay [1] was determined as 100 ppm. Moreover, in assay [2], the “MIC values C. albicans” value was greater than 100 ppm. Moreover, the “MIC values E. coli” value in assay [3] is greater than 100 ppm. The “MIC values P. aeruginosa” value in assay [4] was greater than 100 ppm. The “MIC values S. heminis” value in assay [5] is greater than 100 ppm.
Regarding `CCOc1cc(/C=C/c2ccc(-c3ccccc3)cc2)ccc1O` [Comp. of formula 147], in assay [1], the “MIC values A. niger” value is given as greater than 100 ppm. Besides, the “MIC values C. albicans” value in assay [2] is listed as greater than 100 ppm. The “MIC values E. coli” value in assay [3] is listed as greater than 100 ppm. In addition, in assay [4], the “MIC values P. aeruginosa” value is greater than 100 ppm. The “MIC values S. heminis” value in assay [5] is given as greater than 100 ppm.
In the case of `Cc1cccc(/C=C/c2ccc(Cl)cc2)c1O` [Comp. of formula 128], the “MIC values A. niger” value in assay [1] is recorded as 100 ppm. Also, the “MIC values C. albicans” value in assay [2] is reported as greater than 100 ppm. Further, the “MIC values E. coli” value in assay [3] is greater than 100 ppm. Besides, the “MIC values P. aeruginosa” value in assay [4] is listed as greater than 100 ppm. For the same compound, the “MIC values S. heminis” value in assay [5] was greater than 100 ppm.
Turning to `Oc1ccccc1/C=C/c1cccc2ccccc12` [Comp. of formula 162], the “MIC values A. niger” value in assay [1] came out at 15 ppm. Besides, the “MIC values C. albicans” value in assay [2] is 30 ppm. In addition, in assay [3], the “MIC values E. coli” value is listed as 30 ppm. In assay [4], the “MIC values P. aeruginosa” value is given as greater than 100 ppm. For the same compound, in assay [5], the “MIC values S. heminis” value turned out to be 7.5 ppm.
For the compound `COc1ccc(/C=C/c2cccc(O)c2)cc1` [Comp. of formula 132], in assay [1], the “MIC values A. niger” value is listed as greater than 100 ppm. For the same compound, in assay [2], the “MIC values C. albicans” value is greater than 100 ppm. For the same compound, in assay [3], the “MIC values E. coli” value is given as greater than 100 ppm. Also, in assay [4], the “MIC values P. aeruginosa” value is greater than 100 ppm. The “MIC values S. heminis” value in assay [5] was greater than 100 ppm.
For the compound `CCOc1cc(/C=C/c2ccccc2C)ccc1O` [Comp. of formula 171], the “MIC values A. niger” value in assay [1] was greater than 100 ppm. In addition, the “MIC values C. albicans” value in assay [2] is given as greater than 100 ppm. The “MIC values E. coli” value in assay [3] is on record as greater than 100 ppm. Besides, the “MIC values P. aeruginosa” value in assay [4] was greater than 100 ppm. Further, in assay [5], the “MIC values S. heminis” value was greater than 100 ppm.
Take `COc1ccc(/C=C/c2ccc(O)c(OC)c2)cc1` [Comp. of formula 135]: the “MIC values A. niger” value in assay [1] is greater than 100 ppm. The “MIC values C. albicans” value in assay [2] is recorded as greater than 100 ppm. Also, the “MIC values E. coli” value in assay [3] is greater than 100 ppm. In assay [4], the “MIC values P. aeruginosa” value is greater than 100 ppm. Besides, the “MIC values S. heminis” value in assay [5] was greater than 100 ppm.
On to `COc1ccc(/C=C/c2ccc(Cl)cc2)cc1O` [Comp. of formula 121], for which the “MIC values A. niger” value in assay [1] is reported as greater than 100 ppm. For the same compound, the “MIC values C. albicans” value in assay [2] is reported as greater than 100 ppm. In addition, the “MIC values E. coli” value in assay [3] is greater than 100 ppm. Besides, the “MIC values P. aeruginosa” value in assay [4] was greater than 100 ppm. Further, the “MIC values S. heminis” value in assay [5] is listed as greater than 100 ppm.
With `Oc1ccc(/C=C/c2ccc(-c3ccccc3)cc2)cc1` [Comp. of formula 143], the “MIC values A. niger” value in assay [1] is reported as greater than 100 ppm. For the same compound, the “MIC values C. albicans” value in assay [2] is reported as greater than 100 ppm. Also, the “MIC values E. coli” value in assay [3] is on record as greater than 100 ppm. Further, the “MIC values P. aeruginosa” value in assay [4] is given as greater than 100 ppm. For the same compound, in assay [5], the “MIC values S. heminis” value is on record as greater than 100 ppm.
For `COc1cc(/C=C/c2ccccc2C)ccc1O` [Comp. of formula 172], the “MIC values A. niger” value in assay [1] is greater than 100 ppm. In addition, the “MIC values C. albicans” value in assay [2] stood at 10 ppm. The “MIC values E. coli” value in assay [3] is on record as greater than 100 ppm. The “MIC values P. aeruginosa” value in assay [4] was greater than 100 ppm. Also, the “MIC values S. heminis” value in assay [5] was greater than 100 ppm.
